Two compounds from PMC11645656, “MRGPRX4 mediates phospho-drug associated pruritus in a humanized mouse model” (Science translational medicine, 2024) can be followed below.

Holding throughout (format): cell-based
One assay has as its target MRGPRX4 S83L (L83) (Homo sapiens, UniProt Q96LA9). In words: PRESTO-Tango β-arrestin recruitment assay, HTLA cells stably expressing S83L MRGPRX4. Particulars: single replicate. The protocol: HTLA cells, a cell line derived from HEK293 and engineered to stably express a tTA-dependent luciferase reporter and a β-arrestin2-TEV fusion gene, were generously provided by Richard Axel's laboratory. HTLA cells were cultured in growth medium containing 2 μg/ml puromycin and 100 μg/ml hygromycin B in 5% CO2 at 37 °C. Stably MRGPRX4-expressing HTLA cells were generated by transfecting pcDNA3.1(+)-Zeo containing MRGPRX4-Tango construct (either with WT or S83L mutant sequence) into HTLA cells with Lipofectamine 3000 and selecting the successful transfected clones with Zeocin.
HTLA cells stably expressing either WT or S83L MRGPRX4 were seeded in PDL-coated 96-well white clear bottom cell culture plates with DMEM containing 10% FBS, at a density of 35,000 cells per well and were allowed to attach to the bottom of the wells overnight. The next day, growth medium was replaced with 100 μl of serum-free medium containing the tested drugs at various concentrations, and the cells were then incubated at 37°C for 24 h. On the following day, media with drug solutions was removed and 50 μl per well of Bright-Glo™ Reagent from Bright-Glo™ Luciferase Assay System (Promega) was loaded. The plate was incubated at room temperature in the dark for 5 min, and the relative luminescence units were measured using the Flexstation-3 instrument with SoftMax®Pro 7.1 software (Molecular Devices). Dose response curves and EC50s were analyzed as described above.
MRGPRX4 by β-arrestin (Tango) recruitment assay. Data are from three independent experiments,
performed in triplicate, and depicted as mean ± SEM.

In a further assay the target is T1, MRGPRX4 W158A (Homo sapiens, UniProt Q96LA9, L83S/W158A).
T1 construct: expressed in transfected cells; host or cells: HEK293T, transient
In words: Calcium mobilization assay (FLIPR), MRGPRX4 W158A mutant. To be noted: for calcium mobilization response (Fig. 3E and 3F dose-response): W158A. The text has this:
(§1) Fig. 3. […] (A) Cryo-EM density map of MRGPRX4-Gq in complex with fospropofol. (B) The density map of fospropofol and R82 of MRGPRX4. (C and D) Key molecular interactions between fospropofol and the hydrophilic (C) and hydrophobic (D) part of the agonist binding pocket of MRGPRX4. Amino acid residues interacting with fospropofol are shown as sticks. Hydrogen bond is shown as cyan dashed lines. […] Data are from at least three independent experiments, each performed in triplicate, and reported as the mean ± SEM. (E) and (F) were collected from the same sets of experiments.
(§2) To generate murine Mrgprs expressing cells, HEK293T cells (ATCC) were seeded on poly-D-lysine coated 96 well plate at 25,000 cells per well one day prior to transfection. HEK293T cells were transiently co-transfected with the mammalian expression plasmids carrying cDNA encoding the murine Mrgpr genes and plasmid inserted with cDNA encoding murine α-subunit of the heterotrimeric G15 protein (Gα15) in triplicates using Lipofectamine LTX reagents (Thermo Scientific). To generate WT, S83L, and alanine mutant MRGPRX4-expressing cells, HEK293T cells were seeded on poly-D-lysine coated 384 well plate at 12,000 cells per well one day prior to transfection. Mammalian expression plasmids pLX304 (vector from Addgene) carrying different MRGPRX4 coding sequences were transiently transfected into HEK293T cells in triplicates with Lipofectamine LTX reagents (Thermo Scientific). Intracellular calcium mobilization assays were performed after one day of transfection. Murine Mrgprs tested include Mrgpra1, Mrgpra2a, Mrgpra2b, Mrgpra3, Mrgpra4, Mrgpra6, Mrgpra9, Mrgpra10, Mrgpra11, Mrgpra12, Mrgpra14, Mrgprb5, Mrgprb6, Mrgprb10, Mrgprb11, and Mrgprc11. WT and mutant MRGPRX4 constructs tested include WT, S83L, R82A, R86A, R95A, W158A, Y250A, and Y254A.
(§3) To generate MRGPRX4 mutant constructs, site-directed mutagenesis was performed using Q5® Site-Directed Mutagenesis Kit (New England Biolabs). The primers were designed by the NEBaseChanger tool, with forward primers spanning designated mutated sequence corresponding to the desired amino acid substitutions. The plasmids with WT MRGPRX4 sequence served as the templates for polymerase chain reaction (PCR) amplification with Q5 high-fidelity polymerase and respective primer pairs according to the manufacturer’s conditions. Then, the linear PCR products underwent phosphorylation, ligation, and simultaneous degradation of template DNA by incubating them with a KLD enzyme mix consisting of T4 polynucleotide kinase, T4 DNA ligase, and DpnI at room temperature for 5 min. Subsequently, the mutated circular plasmids were transformed into NEB 5-alpha competent E. coli by heat-shock method, and the successfully transformed bacteria were selected on LB plates with selection antibiotics. The next day, the transformant colonies were picked, expanded in LB broth containing selection antibiotics overnight. Plasmids were isolated using QIAprep Spin Miniprep Kit (Qiagen) and subjected to sequencing to confirm the mutation.

For another assay, the target named is T2, MRGPRX4 R82A (Homo sapiens, UniProt Q96LA9, L83S/R82A).
T2 construct: expressed in transfected cells; host or cells: HEK293T, transient
In words: Calcium mobilization assay (FLIPR), MRGPRX4 R82A mutant.
From the text: as §1
To generate murine Mrgprs expressing cells, HEK293T cells (ATCC) were seeded on poly-D-lysine coated 96 well plate at 25,000 cells per well one day prior to transfection. HEK293T cells were transiently co-transfected with the mammalian expression plasmids carrying cDNA encoding the murine Mrgpr genes and plasmid inserted with cDNA encoding murine α-subunit of the heterotrimeric G15 protein (Gα15) in triplicates using Lipofectamine LTX reagents (Thermo Scientific). To generate WT, S83L, and alanine mutant MRGPRX4-expressing cells, HEK293T cells were seeded on poly-D-lysine coated 384 well plate at 12,000 cells per well one day prior to transfection. […]

The target of another assay is T3, MRGPRX4 Y254A (Homo sapiens, UniProt Q96LA9, L83S/Y254A).
T3 construct: expressed in transfected cells; host or cells: HEK293T, transient
Briefly: Calcium mobilization assay (FLIPR), MRGPRX4 Y254A mutant. Particulars: for Calcium mobilization response, dose-response replicate data (Fig. 3E and 3F): Y254A.
From the text: as §1, §2, §3

Structures are written as SMILES. “And” between values parts separate entries of the source, which are not always exact repeats. Identical values can stand only once.

T3 sequence (Q96LA9 whole entry L83S/Y254A): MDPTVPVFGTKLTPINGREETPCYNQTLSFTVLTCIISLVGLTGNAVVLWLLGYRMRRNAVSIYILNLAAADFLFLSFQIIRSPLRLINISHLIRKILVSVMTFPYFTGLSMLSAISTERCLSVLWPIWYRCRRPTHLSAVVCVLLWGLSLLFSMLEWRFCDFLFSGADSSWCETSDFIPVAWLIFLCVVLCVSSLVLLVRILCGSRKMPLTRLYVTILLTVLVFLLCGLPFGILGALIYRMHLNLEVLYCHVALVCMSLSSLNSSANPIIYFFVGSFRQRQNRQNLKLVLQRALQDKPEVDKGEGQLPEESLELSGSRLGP
T1 sequence (Q96LA9 whole entry L83S/W158A): as the sequence (Q96LA9 whole entry L83S/Y254A) above, with W158A, A254Y counted along it
Sequence of MRGPRX4 S83L (L83) (Q96LA9 whole entry, stated change not applied, the tested form may be a part): as the sequence (Q96LA9 whole entry L83S/Y254A) above, with S83L, A254Y counted along it
T2 sequence (Q96LA9 whole entry R82A/L83S): as the sequence (Q96LA9 whole entry L83S/Y254A) above, with R82A, A254Y counted along it

`O=C1NC(c2ccccc2)(c2ccccc2)C(=O)N1COP(=O)(O)O` [Fosphenytoin]: the results for the “fig. S7 response (raw signal), concentration-response” value on MRGPRX4 S83L (L83) (3.91e-6 M) and at MRGPRX4 S83L (L83) (7.81e-6 M) were 13508.2 and 22144.4, respectively. In addition, the “Calcium mobilization response at alanine mutant W158A vs WT” value at MRGPRX4 W158A was “disrupted calcium mobilization”. The “calcium mobilization response (Fig. 3E and 3F dose-response)” value was -15.9549 at MRGPRX4 W158A (0.000333 M), -17.9356 on MRGPRX4 W158A (0.001 M) and -11.6633 on MRGPRX4 W158A ([…]). For the same compound, the “Calcium mobilization response at alanine mutant R82A vs WT” value on MRGPRX4 R82A is “either greatly attenuated or abolished”. Also, at MRGPRX4 Y254A, the “Calcium mobilization response at alanine mutant Y254A vs WT” value is reported as “disrupted calcium mobilization”. Also, the “Calcium mobilization response, dose-response replicate data (Fig. 3E and 3F)” value (from here on “Calcium mobilization response … (Fig. 3E and 3F)”) on MRGPRX4 Y254A (concentration 188 pM) is 6.602 and -1.3205 and -9.574 and 20.2858 and 13.0936 and 9.774 and -0.7431 and 13.747; on MRGPRX4 Y254A (concentration 565 pM) it was 20.4677 and 20.7978 and 5.942 and 10.3273 and 0.3688 and 21.3924 and 9.2885 and 13.5241; at MRGPRX4 Y254A (concentration 1.69e-9 M), 15.8459 and 12.5447 and -5.6121 and 28.0313 and 20.8391 and 13.6468 and 20.2118 and 18.4284; at MRGPRX4 Y254A (concentration 5.08e-9 M), 23.7689 and 10.8941 and -0.3301 and 18.6261 and 10.3273 and 20.8391 and 13.5241 and 11.5177; at MRGPRX4 Y254A (concentration 1.52e-8 M), 15.8459 and 17.8267 and 10.564 and 26.3716 and 23.6054 and 16.9663 and 20.8805 and 19.7659; at MRGPRX4 Y254A (concentration 4.57e-8 M), 19.1472 and 14.8556 and 8.913 and 19.1793 and 12.5403 and 20.2858 and 17.7596. The “Calcium mobilization response … (Fig. 3E and 3F)” value at MRGPRX4 Y254A (concentration 1.37e-7 M) is 18.8171 and 31.3618 and 9.243 and 27.4781 and 26.9248 and 21.3924 and 19.3201; at MRGPRX4 Y254A (concentration 4.12e-7 M), 18.4869 and 19.4773 and 3.301 and 26.9248 and 12.5403 and 32.4573 and 12.4094; on MRGPRX4 Y254A (concentration 1.23e-6 M) it was 21.1279 and 18.1568 and 6.272 and 32.4573 and 21.9456 and 23.0521 and 14.8616 and 16.645; at MRGPRX4 Y254A (concentration 3.7e-6 M), 15.5158 and 10.2338 and 7.923 and 31.3509 and 13.0936 and 21.9456 and 13.9699 and 13.3011; on MRGPRX4 Y254A (concentration 1.11e-5 M), 7.923 and -1.651 and 1.651 and 24.1586 and 18.0728 and 21.9456 and 2.8237 and 17.9825; at MRGPRX4 Y254A (concentration 3.33e-5 M) it was 5.942 and 0.9904 and -9.904 and 16.4131 and 10.3273 and 31.3509 and 7.059 and 4.161. Also, the “Calcium mobilization response … (Fig. 3E and 3F)” value at MRGPRX4 Y254A (concentration 0.0001 M) was 1.651 and -5.282 and 12.5403 and 18.0728 and 14.2001 and 2.601 and 7.951.
As to `CC(C)c1cccc(C(C)C)c1OCOP(=O)(O)O` [Fospropofol], the “fig. S7 response (raw signal), concentration-response” value on MRGPRX4 S83L (L83) (1.95e-8 M) is reported as 10514. On MRGPRX4 W158A, the “Calcium mobilization response at alanine mutant W158A vs WT” value was “disrupted calcium mobilization”. Also, at MRGPRX4 R82A, the “Calcium mobilization response at alanine mutant R82A vs WT” value was “either greatly attenuated or abolished”. In addition, the “Calcium mobilization response at alanine mutant Y254A vs WT” value on MRGPRX4 Y254A is “disrupted calcium mobilization”.
